According to paper doi:10.1101/2022.02.04.479134, “A Suite of TMPRSS2 Assays for Screening Drug Repurposing Candidates as Potential Treatments of COVID-19” (bioRxiv, 2022):
pIC50, pKi: −log10 of the molar value. Entries after “also recorded” stand apart in the source; their conditions may differ. Where a name gives a salt, the structure may show the parent alone. Read-outs that look alike come from different tables or passages of the source.

What was measured:
[1] = Fluorescence counterassay (AMC quenching); conditions: 1 μM AMC; for Biochemical (fluorogenic counterassay) Max Response: 0% = 1 μM AMC, −100% = 0.1 μM AMC, <0% = quenching
Description: Assay buffer (50 mM Tris pH 8, 150 mM NaCl, 0.01% Tween20) was added to the full plate to give a total reaction volume of 5 μL. Detection was done using the PHERAstar with 340 nm excitation and 440 nm emission. Fluorescence was normalized relative to a negative control containing 7-amino-4-methylcoumarin at 0.1 μM (−100% activity, low fluorescence) and a positive control containing 7-amino-4-methylcoumarin at 1 μM (0% activity, high fluorescence).

[2] = target: T1, Recombinant Human TMPRSS2 (Homo sapiens, UniProt O15393); assay: biochemical; format: biochemical; conditions: for AC50: 10 μM peptide, 0.4 μM TMPRSS2, 1 h RT, N/D = Not Detected, read-out: Biochemical (mass spectrometry) AC50; for pIC50: biochemical assay not given, matches mass spectrometry values, read-out: IC50 inhibition of TMPRSS2
T1 sequence (O15393 106-492): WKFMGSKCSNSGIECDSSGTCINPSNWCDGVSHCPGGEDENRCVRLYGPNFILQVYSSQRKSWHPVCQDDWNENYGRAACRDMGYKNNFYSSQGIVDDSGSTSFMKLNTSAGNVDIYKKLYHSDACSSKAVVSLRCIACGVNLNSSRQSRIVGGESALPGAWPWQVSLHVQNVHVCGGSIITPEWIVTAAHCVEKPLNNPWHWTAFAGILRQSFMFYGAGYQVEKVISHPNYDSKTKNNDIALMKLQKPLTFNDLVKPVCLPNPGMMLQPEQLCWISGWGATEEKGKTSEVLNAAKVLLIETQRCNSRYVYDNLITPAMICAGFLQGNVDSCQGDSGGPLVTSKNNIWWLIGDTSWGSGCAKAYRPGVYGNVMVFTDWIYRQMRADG

[3] = target: T1, Recombinant Human TMPRSS2; assay: biochemical; format: biochemical; conditions: for AC50: 10 μM Boc-QAR-AMC, 0.175 μM TMPRSS2, 1 h RT, 11-point dose-response in triplicate, read-out: Biochemical (fluorogenic) AC50
Description: Buffer conditions were tested and optimized to include: 50 mM Tris pH 8, 150 mM NaCl and 0.01% Tween20.
Following 1 h of incubation at RT, detection was done using the PHERAstar with 340 nm excitation and 440 nm emission (Table 1).
To determine compound activity in the assay, the concentration–response data for each sample was plotted and modeled by a four-parameter logistic fit yielding IC50 and maximal response values. […] Data normalization, visualization, and curve fitting were performed using Prism (GraphPad, San Diego, CA).

Calu-3 cells [4] = conditions: for AC50: read-out: Calu-3 (cytotoxicity) AC50, N/D = Not Detected
recombinant TMPRSS2 = conditions: fluorogenic peptide substrate; cited from earlier work
Calu-3 cells [5] = conditions: cited from earlier work
[6] = tested on: H1N1 and H3N2 influenza virus strains; conditions: Calu-3 cells; cited from earlier work
in vitro = conditions: human

Molecule	AC50 [2] [µM]	AC50 [3] [µM]	Biochemical (fluorogenic counterassay) Max Response [1] [%]	Calu-3 (cytotoxicity) Max Response (Calu-3 cells [4]; ATP content, no PP) [%]	also measured
tannic acid					quenching of the AMC fluorescent signal [1]: ~ 30%
Hydroxystilbamidine bis(methanesulfonate)	2.31	3.03	-6.4		Calu-3 (cytotoxicity) Max Response (Calu-3 cells [4]): 0%
Dibromopropamidine Dihydrochloride	4.34	4.4	87	-85	AC50 (Calu-3 cells [4]; ATP content, no PP): 25.1 µM
COC[C@H]1C[C@@H](c2ncc(-c3ccc4c(c3)COc3cc5c(ccc6nc([C@@H]7CC[C@H](C)N7C(=O)[C@@H](NC(=O)OC)C(C)C)[nH]c65)cc3-4)[nH]2)N(C(=O)[C@H](NC(=O)OC)c2ccccc2)C1 [Velpatasvir]	13.2	14.7	442	0	
Nc1nc2ncc(CNc3ccc(C(=O)N[C@@H](CCC(=O)O)C(=O)O)cc3)nc2c(=O)[nH]1 [Folic Acid]		13.3	14.5	0	
N=C(N)c1ccc2nc(-c3cc(CC(=O)N[C@@H](CC(=O)O)C(=O)O)cc(-c4cc(S(N)(=O)=O)ccc4O)c3O)[nH]c2c1 [PCI-27483]	1.4	1.8	61.3	0	
N=C(N)c1cccc(CC(NS(=O)(=O)c2cccc(-c3ccc(Cl)cc3Cl)c2)C(=O)N2CCC(CCN)CC2)c1 (stereo not shown) [Cmpd 92 (Meyer)]	0.28	0.41	-5.6	0	pIC50 [2]: ~6.52; pKi (recombinant TMPRSS2): 9.05; cytotoxicity within Calu-3 cells (Calu-3 cells [5]): not cytotoxic; replication of H1N1 and H3N2 influenza virus strains [6]: significantly reduced
CC(=O)N[C@@H](CC(C)C)C(=O)N[C@@H](CC(C)C)C(=O)N[C@H](C=O)CCCNC(=N)N [Leupeptin]	0.72	1.58	0.5	0	
CC(C)C[C@H](NC(=O)[C@H](Cc1ccccc1)NC(=O)c1cnccn1)B(O)O [Bortezomib]	9.77	11.4	4.6	-97	AC50 (in vitro): 0.29 µM; cytotoxicity towards Calu-3 cells (Calu-3 cells [4]; cytotoxicity counter-assay): high cytotoxicity
N=C(N)c1cccc(CC(NS(=O)(=O)c2cccc(-c3ccc(Cl)cc3Cl)c2)C(=O)N2CCC(NC(=O)NC3CCCCC3)CC2)c1 (stereo not shown) [Cmpd 114 (Meyer)]	0.26	0.57	-6.2	0	pIC50 [2]: ~6.52; pKi (recombinant TMPRSS2): 8.30; cytotoxicity within Calu-3 cells (Calu-3 cells [5]): not cytotoxic
AGN194310		7.9	-9.2	0	
CCOC(=O)c1ccc(OC(=O)CCCCCNC(=N)N)cc1 [Gabexate mesilate]			17.4	0	
CN(C)C(=O)COC(=O)Cc1ccc(OC(=O)c2ccc(NC(=N)N)cc2)cc1 [Camostat]			-5	0	
N=C(N)c1ccc2cc(OC(=O)c3ccc(N=C(N)N)cc3)ccc2c1 [Nafamostat mesilate]			-1.9	0	
COC(=O)[C@H](Cc1cccc(C(=N)N)c1)[C@@H](C)NC(=O)c1ccc(-c2cc[n+]([O-])cc2)cc1 [Otamixaban]			-1	0	
NC[C@H]1CC[C@H](C(=O)Oc2ccc(CCC(=O)O)cc2)CC1 [Cetraxate HCl]	5.52	2.34	2.7	0	
CN(C(=O)C(Cl)Cl)c1ccc(OC(=O)c2ccco2)cc1 [Diloxanide furoate]	21.7	11.1	-3.2	0	
N=C(N)NC(=O)c1nc(Cl)c(N)nc1N [Amiloride HCl]	9	8.29	26.6	0	
N=C(N)c1ccc(OCCCCCOc2ccc(C(=N)N)cc2)cc1 [Pentamidine isethionate]	7.6	9.49	-0.05		AC50 (in vitro): 18.6 µM
Marizomib / Salinosporamide A	22.9	14.7	2.2	-98	AC50 (Calu-3 cells [4]; ATP content, no PP): 0.1 µM
G-007-LK		14.7	424	0	
COC(=O)N[C@H](C(=O)N1CCC[C@H]1c1nc(-c2ccc(-c3ccc(-c4c[nH]c([C@@H]5CCCN5C(=O)[C@@H](NC(=O)OC)C(C)C)n4)cc3)cc2)c[nH]1)C(C)C [Daclatasvir dihydrochloride]		13.3	447	0	
NCCc1ccc(S(=O)(=O)F)cc1 [4-(2-aminoethyl)benzenesulfonyl fluoride]			23	0	
O=c1ccn([C@H]2C[C@H](O)[C@@H](CO)O2)c(=O)[nH]1 [Deoxyuridine]		16	19.3	0	
O=S(=O)(F)Cc1ccccc1 [Phenylmethanesulfonyl fluoride (PMSF), Phenylmethanesulfonyl fluoride]			-2.8	0	
CCOC(=O)c1cc(=O)c2c(OCC(COc3cccc4oc(C(=O)OCC)cc(=O)c34)OC(=O)[C@@H](N)CCCCN)cccc2o1 [Cromoglicate lisetil]	25.1	16.5	-1.4	0	
O=c1ccc2ccc(O)cc2o1 [7-Hydroxycoumarin]		8.62	1373	0	inhibition of TMPRSS2 in the mass spectrometry detection assay ([2]; dose-response): no inhibition detected; also recorded: did not show inhibition; inhibition of TMPRSS2 in the fluorogenic assay ([3]; at 40 μM): nearly full inhibition
